Measurements taken from ChEMBL document CHEMBL1201862, “PubChem BioAssay data set” (2004).
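These data come from cells grown in 96-well plates and exposed to compound for 48 hours at five concentrations. GI50 = concentration required for 50% inhibition of growth.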 Calls of active or inactive are those of the source. Rule as the data show it: active = GI50 up to about 1.1 µM and inactive = higher.

What was measured:
Assay in all cases: NCI anticancer screen, dose series, 48 h
SN12C = test system: SN12C
NCI-H23 = test system: NCI-H23
OVCAR-4 = test system: OVCAR-4
SF-268 = test system: SF-268
UO-31 = test system: UO-31
SW-620 = test system: SW-620
ACHN = test system: ACHN
PC-3 = test system: PC-3
LOX IMVI = test system: LOX IMVI
SF-295 = test system: SF-295
MOLT-4 = test system: MOLT-4
K562 = test system: K562
MDA-N = test system: MDA-N
M14 = test system: M14
HCT-15 = test system: HCT-15
TK-10 = test system: TK-10
SNB-75 = test system: SNB-75
CAKI-1 = test system: CAKI-1
SK-MEL-2 = test system: SK-MEL-2

SMILES	GI50 (SN12C)	GI50 (NCI-H23)	GI50 (OVCAR-4)	GI50 (SF-268)	GI50 (UO-31)	GI50 (SW-620)	GI50 (ACHN)	GI50 (PC-3)	GI50 (LOX IMVI)	GI50 (SF-295)	GI50 (MOLT-4)	GI50 (K562)	GI50 (MDA-N)	GI50 (M14)	GI50 (HCT-15) [µM]	GI50 (TK-10)	GI50 (SNB-75)	GI50 (CAKI-1)	GI50 (SK-MEL-2)
COC(=O)C1(Cc2cccc(Cl)c2)CCCCCCN1C(=O)c1ccccc1 (centres undefined)	14.5 µM (inactive)	17.2 µM (inactive)	14.5 µM (inactive)	20.6 µM (inactive)	10.8 µM (inactive)	18.2 µM (inactive)	9.46 µM (inactive)	4.98 µM (inactive)	17.5 µM (inactive)	6.98 µM (inactive)	8.89 µM (inactive)	10.7 µM (inactive)	16.5 µM (inactive)	17.9 µM (inactive)	11.5	12 µM (inactive)	13 µM (inactive)		
CC12ON=C(c3ccccc3)N1C=CN1C(c3ccccc3)=NOC12 (centres undefined)		> 100 µM (inactive)		> 100 µM (inactive)	> 100 µM (inactive)		> 100 µM (inactive)	> 100 µM (inactive)	> 100 µM (inactive)	> 100 µM (inactive)			> 100 µM (inactive)	> 100 µM (inactive)	> 100	> 100 µM (inactive)	> 100 µM (inactive)	> 100 µM (inactive)	
CCC(=O)O[C@H]1CC[C@H]2[C@@H]3CCC4=C/C(=N/NC(=O)c5cccc6c(=O)c7ccccc7[nH]c56)CC[C@]4(C)[C@H]3CC[C@]12C	> 25 µM (inactive)	> 25 µM (inactive)	> 25 µM (inactive)	> 25 µM (inactive)	> 25 µM (inactive)	> 25 µM (inactive)	> 25 µM (inactive)	> 25 µM (inactive)	10.1 µM (inactive)	> 25 µM (inactive)	> 25 µM (inactive)	> 25 µM (inactive)	> 25 µM (inactive)	> 25 µM (inactive)	> 25	> 25 µM (inactive)	> 25 µM (inactive)		> 25 µM (inactive)
Cc1cc2c(cc1C)C(=O)C1(C2)Cc2cc3c(cc2C1=O)CCC3 (centres undefined)	> 100 µM (inactive)	> 100 µM (inactive)	> 100 µM (inactive)	> 100 µM (inactive)	> 100 µM (inactive)	> 100 µM (inactive)	> 100 µM (inactive)	> 100 µM (inactive)		> 100 µM (inactive)	> 100 µM (inactive)	> 100 µM (inactive)	> 100 µM (inactive)	44.1 µM (inactive)	> 100	> 100 µM (inactive)	> 100 µM (inactive)	> 100 µM (inactive)	> 100 µM (inactive)
O=C1c2ccccc2C(=O)N1n1c(Cc2ccc([N+](=O)[O-])cc2)n[nH]c1=O	> 100 µM (inactive)	> 100 µM (inactive)		> 100 µM (inactive)	> 100 µM (inactive)	> 100 µM (inactive)	> 100 µM (inactive)	> 100 µM (inactive)		> 100 µM (inactive)	> 100 µM (inactive)	> 100 µM (inactive)	> 100 µM (inactive)		> 100	> 100 µM (inactive)	> 100 µM (inactive)	> 100 µM (inactive)	75.2 µM (inactive)
O=CC1C[C@@H](N2C(=O)O[C@@H](c3ccccc3)[C@H]2c2ccccc2)[C@@H]1COCc1ccccc1 (some centres undefined)	17 µM (inactive)	17.6 µM (inactive)	28.6 µM (inactive)	17.3 µM (inactive)	15.2 µM (inactive)	21.5 µM (inactive)	24.8 µM (inactive)	19.5 µM (inactive)	17.7 µM (inactive)	17.3 µM (inactive)	6.04 µM (inactive)	21.1 µM (inactive)	15 µM (inactive)	19.1 µM (inactive)	18	20.1 µM (inactive)		36.2 µM (inactive)	16.4 µM (inactive)
CCOC(=O)CNc1c(OCc2ccccc2)c(=O)c1=O	> 100 µM (inactive)	> 100 µM (inactive)	> 100 µM (inactive)	> 100 µM (inactive)	> 100 µM (inactive)	> 100 µM (inactive)	> 100 µM (inactive)	> 100 µM (inactive)		> 100 µM (inactive)	> 100 µM (inactive)	> 100 µM (inactive)	> 100 µM (inactive)	> 100 µM (inactive)	> 100	> 100 µM (inactive)	> 100 µM (inactive)		> 100 µM (inactive)
O=c1c2cc(Cl)ccc2[nH]c2cc(O)cc(O)c12	> 10 µM (inactive)	9.02 µM (inactive)	> 10 µM (inactive)	> 10 µM (inactive)		> 10 µM (inactive)	> 10 µM (inactive)	> 10 µM (inactive)		> 10 µM (inactive)	> 10 µM (inactive)	> 10 µM (inactive)	> 10 µM (inactive)	> 10 µM (inactive)	> 10	> 10 µM (inactive)	2.95 µM (inactive)	> 10 µM (inactive)	> 10 µM (inactive)
